The values that follow come from BindingDB's records for doi:10.1021/acschembio.7b00653 (University of Konstanz, 2017).

This test deals with T1, AP-4-A phosphorylase (Mycobacterium tuberculosis (strain ATCC 25618 / H37Rv), UniProt P9WMK9).
T1 sequence (P9WMK9 whole entry): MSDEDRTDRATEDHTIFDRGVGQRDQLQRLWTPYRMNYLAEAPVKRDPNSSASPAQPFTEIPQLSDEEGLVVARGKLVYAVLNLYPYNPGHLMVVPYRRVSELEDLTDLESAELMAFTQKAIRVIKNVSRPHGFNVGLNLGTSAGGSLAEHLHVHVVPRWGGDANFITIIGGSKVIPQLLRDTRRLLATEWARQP
The test is described as follows: FRET assay. The note with it: pH 8. Here is the method:
Dose response curves against Rv2613c with 1 as the substrate for derivatives 5 and 18. 8 nM of Rv2613c were preincubated in buffer (20 mM Tris-HCl (pH 8.0), 50 mM NaCl, 1 mM DTT, 0.2 mg/mL BSA, 5 mM NaH2PO4, 5 mM MgCl2) with indicated amounts of compound solved in DMSO at 25°C for 30 min. Substrate 1 (2 µM in Tris-HCl buffer pH 8.0) was added Measurement of the fluorescence at 570 nm was conducted every 3 min over 1 h. Turnover of probe 1 was calculated by normalization to the intensity of controls. The rate of probe 1 turnover was obtained by linear fitting of probe 1 turnover over time. % Inhibition was calculated relative to the controls. The IC50 was calculated by a non-linear curve fit/dose response curve in Origin.

Each structure is given as a SMILES string. Bounds are passed on as bounds.

As a reminder, the IC50 is the concentration needed to halve the response being measured. As to `CS/C(Nc1ccc(C(F)(F)F)cc1)=C(/C#N)S(=O)(=O)c1ccccc1` [Synthesized Sulfanylacrylonitril Derivatives 7], it took 16300 nM to reach half-maximal inhibition (IC50). That is a double-digit micromolar value.

In turn, `CS/C(Nc1cc(C(F)(F)F)cc(C(F)(F)F)c1)=C(/C#N)S(=O)(=O)c1ccccc1` [Synthesized Sulfanylacrylonitril Derivatives 8] returned a concentration for half-maximal inhibition (IC50) of more than 100000 nM.

The compound `CS/C(Nc1cccc(C#N)c1)=C(/C#N)S(=O)(=O)c1ccccc1` [Synthesized Sulfanylacrylonitril Derivatives 16] came in with an IC50 of 2510 nM.

`CS/C(Nc1cccc(C(C)C)c1)=C(/C#N)S(=O)(=O)c1ccccc1` [Synthesized Sulfanylacrylonitril Derivatives 20]: the midpoint of inhibition, the IC50, lay at 1770 nM.

For the compound `COc1cccc(N/C(SC)=C(\C#N)S(=O)(=O)c2ccccc2)c1` [Synthesized Sulfanylacrylonitril Derivatives 21], the 50% inhibitory concentration (IC50) came out at 11300 nM.

As to `CS/C(Nc1ccccc1)=C(/C#N)S(=O)(=O)c1ccccc1` [Synthesized Sulfanylacrylonitril Derivatives 3], the IC50 was more than 30000 nM.

`CCc1cccc(N/C(SC)=C(\C#N)S(=O)(=O)c2ccccc2)c1` [Synthesized Sulfanylacrylonitril Derivatives 18] came in with a half-maximal inhibitory concentration (IC50) of 570 nM.

With `CCCS/C(Nc1cccc(C(F)(F)F)c1)=C(/C#N)S(=O)(=O)c1ccccc1` [Synthesized Sulfanylacrylonitril Derivatives 10], the IC50 is 470 nM. This IC50 and that of the compound before are within 1.5-fold of each other.

`CS/C(Nc1cccc(C(F)(F)F)c1)=C(/C#N)S(=O)(=O)c1ccc(Cl)cc1` [Synthesized Sulfanylacrylonitril Derivatives 2]: the IC50 came to 260 nM.

With `CS/C(Nc1cccc(C)c1)=C(/C#N)S(=O)(=O)c1ccccc1` [Synthesized Sulfanylacrylonitril Derivatives 14], inhibition was half-maximal at 4620 nM (IC50).

Compound `COC(=O)c1cccc(N/C(SC)=C(\C#N)S(=O)(=O)c2ccccc2)c1` [Synthesized Sulfanylacrylonitril Derivatives 17] returned an IC50 of 21800 nM.

As to `CCCc1cccc(N/C(SC)=C(\C#N)S(=O)(=O)c2ccccc2)c1` [Synthesized Sulfanylacrylonitril Derivatives 19], the half-maximal inhibitory concentration (IC50) was 960 nM. Compared with the last compound, the IC50 is about 23-fold lower.

In turn, `N#C/C(=C(\Nc1cccc(C(F)(F)F)c1)SCc1ccccc1)S(=O)(=O)c1ccccc1` [Synthesized Sulfanylacrylonitril Derivatives 12] showed an IC50 of 800 nM.

For `CS/C(Nc1cccc([N+](=O)[O-])c1)=C(/C#N)S(=O)(=O)c1ccccc1` [Synthesized Sulfanylacrylonitril Derivatives 15], the 50% inhibitory concentration (IC50) was 1300 nM.

`CC(C)S/C(Nc1cccc(C(F)(F)F)c1)=C(/C#N)S(=O)(=O)c1ccccc1` [Synthesized Sulfanylacrylonitril Derivatives 11] displayed an IC50 of 940 nM.

As to `CS/C(Nc1ccccc1)=C(/C#N)S(=O)(=O)c1ccc(Cl)cc1` [Synthesized Sulfanylacrylonitril Derivatives 4], the IC50 is more than 100000 nM.

As to `CS/C(Nc1ccccc1C(F)(F)F)=C(/C#N)S(=O)(=O)c1ccccc1` [Synthesized Sulfanylacrylonitril Derivatives 6], the half-maximal inhibitory concentration (IC50) was more than 100000 nM.

The compound `CS/C(Nc1cc(C)cc(C)c1)=C(/C#N)S(=O)(=O)c1ccccc1` [Synthesized Sulfanylacrylonitril Derivatives 22] yielded an IC50 of more than 100000 nM.

`CS/C(Nc1cccc(C(F)(F)F)c1)=C(/C#N)S(=O)(=O)c1ccccc1` [Synthesized Sulfanylacrylonitril Derivatives 5] gave an IC50 of 120 nM.
